pIC50: −log10 of the molar value.
Molecular target: Cathepsin S (Homo sapiens, UniProt P25774)
Assay: Inhibitory concentration against human cysteine protease cathepsin S

Cathepsin S, sequence (P25774 whole entry): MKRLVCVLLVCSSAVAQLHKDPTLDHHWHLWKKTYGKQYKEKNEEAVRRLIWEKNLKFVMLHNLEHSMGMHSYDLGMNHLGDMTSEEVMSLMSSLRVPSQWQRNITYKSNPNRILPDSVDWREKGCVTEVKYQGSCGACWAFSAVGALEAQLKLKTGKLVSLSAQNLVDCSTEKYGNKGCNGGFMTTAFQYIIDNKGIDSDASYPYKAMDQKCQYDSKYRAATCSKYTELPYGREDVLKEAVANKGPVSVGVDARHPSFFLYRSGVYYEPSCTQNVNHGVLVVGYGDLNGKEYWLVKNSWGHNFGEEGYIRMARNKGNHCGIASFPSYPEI

SMILES | pIC50
Cc1ccccc1N1CCN(CC(O)Cn2nc(-c3ccc(I)cc3)c3c2CCN(C(N)=O)C3)CC1 (configuration not stated) | 4.85
CC(=O)N1CCc2c(c(-c3ccc(Cl)cc3)nn2CC(O)CN2CCN(C(c3ccc(F)cc3)c3ccc(F)cc3)CC2)C1 (configuration not stated) | 6.00
COc1ccccc1N1CCN(CCCCn2nc(-c3ccc(Cl)cc3)c3c2CCN(C(C)=O)C3)CC1 | 5.02

The remaining compounds from weak to strong by pIC50, led by results:

pIC50 | SMILES
6.00 | CC(=O)N1CCc2c(c(-c3ccc(Cl)cc3)nn2CC(O)CN2CCN(c3ccccc3Cl)CC2)C1 (configuration not stated)
6.22 | COc1ccccc1N1CCN(CC(O)Cn2nc(-c3ccc(I)cc3)c3c2CCN(C(C)=O)C3)CC1 (configuration not stated)
7.70 | N#Cc1ccccc1N1CCN(CC(Cn2nc(-c3ccc(I)cc3)c3c2CCN(C(N)=O)C3)OC(N)=O)CC1 (configuration not stated)

Tested on: not listed separately
Assay: Inhibitory concentration against human Li processing
Type: functional

pIC50 | SMILES
6.06 | N#Cc1ccccc1N1CCN(CC(Cn2nc(-c3ccc(I)cc3)c3c2CCN(C(N)=O)C3)OC(N)=O)CC1 (configuration not stated)

Reference: ChEMBL document CHEMBL1137979, “Nonpeptidic, noncovalent inhibitors of the cysteine protease cathepsin S” (J Med Chem, 2004)
